# From patent publication US20250064836A1 (priority 2023, published 2025)
# “Also recorded” adds a separate entry of the source. Read-outs that look alike come from different tables or passages of the source. No end group written: not given here.
# B1: fremanezumab (antibody, chains of the INN, looked up, V domains shown)
# VH: EVQLVESGGGLVQPGGSLRLSCAASGFTFSNYWISWVRQAPGKGLEWVAEIRSESDASATHYAEAVKGRFTISRDNAKNSLYLQMNSLRAEDTAVYYCLAYFDYGLAIQNYWGQGTLVTVSS
# VL: EIVLTQSPATLSLSPGERATLSCKASKRVTTYVSWYQQKPGQAPRLLIYGASNRYLGIPARFSGSGSGTDFTLTISSLEPEDFAVYYCSQSYNYPYTFGQGTKLEIK
# Tests used:
# mice = assay type: in vivo, mouse
# cecal tissue explants = conditions: mouse, in vivo
# C. difficile 630 Δerm [1] = assay: Antibiotic-treatment-induced CDI mouse model, C. difficile 630 Δerm; conditions: for histopathological scores: CDI mouse model, 630 Δerm, FIG. 4D; for histopathological scores / pathogen burden (C. difficile CFUs in faeces): WT mice; for pathogen burden (C. difficile CFUs in faeces): day 2 after infection
# C. difficile 630 Δerm [2] = assay: C. difficile growth in vitro (OD600); conditions: 20 μM, 24 h
# [3] = test system: C. difficile M7404 (A-/B+); assay: CDI mouse model, hypervirulent strain M7404 (TcdA-/TcdB2); conditions: for fatality: CDI with M7404 (A-/B+), mice; for histopathological scores of colitis: surviving mice, CDI with M7404
# mouse footpads = conditions: for oedema induced by TcdB2: footpad injection of TcdB2, antagonist pre-treatment
# Description: The footpad toxin injection assay was performed as previously described. Briefly, mice were restrained in an incontinence pad and the footpad was held and subsequently injected using a 29.5G syringe into the plantar surface. […] Paw diameter changes were assessed by calculating a ratio relative to the un-injected foot. For each test toxin, 500 ng were administered in a volume of 20 μl of normal saline. Pharmacological assays were performed in female CDI mice, with pre-treatment with drugs 30 min to 1 h prior to toxin injection. For experiments involving transgenic mice, experiments were performed in male and female mice (age matched, 8-15 weeks).
# human brain pericytes = assay: IL-8 secretion from cultured pericytes (ELISA); assay type: cell-based
# Description: Primary human cultured brain vascular pericytes (ScienCell, #1200) were routinely cultured in special medium with supplement, FBS and penicillin streptomycin provided by the cell's vendor (ScienCell, #1201). Cells were subcultured when confluent and used up to passage 10. For secretion assays these were performed on early passage cells (passages 3-8). Cytokine secretion in cell culture medium was determined using ELISA based assays against IL-8 (Biolegend, 431504). The effect of CGRP on cultured pericytes was determined by incubating pericytes for 1 h with human CGRPB (Cayman, 24725).
# [4] = cecum injection of TcdB (6 μg), mice pretreated with antagonist 30 min to 1 h before, FIG. 4C
Molecule,CGRP secretion (cecal tissue explants),histopathological scores (C. difficile 630 Δerm [1]),pathogen burden (C. difficile CFUs in faeces) (C. difficile 630 Δerm [1]),C. difficile growth rate / fitness (OD600) (C. difficile 630 Δerm [2]),histopathological scores (mice; [4]),fatality [3],histopathological scores of colitis [3],oedema induced by TcdB2 (mouse footpads),"histopathological scores (mice; mouse, in vivo)",other results
"C=C(C)[C@]12C[C@@H](C)[C@@]34O[C@](Cc5ccccc5)(O[C@@H]1[C@@H]3C=C(COC(=O)Cc1ccc(O)c(OC)c1)C[C@]1(O)C(=O)C(C)=C[C@@H]41)O2 [RTX, resiniferatoxin]",reduced,,,,,,,,,"histopathology upon TcdB administration (mice; mouse, in vivo): less severe histopathology; SP levels (cecal tissue explants): reduced SP levels"
C[C@@H](O[C@H]1OCCN(Cc2n[nH]c(=O)[nH]2)[C@H]1c1ccc(F)cc1)c1cc(C(F)(F)F)cc(C(F)(F)F)c1 [aprepitant],,reduced histopathological scores,reduced pathogen burden,not affected; also recorded: Neither drug influenced C. difficile growth rate,reduced histopathological scores,markedly reduced,markedly reduced,prevented,,"effect on C. difficile colonization and histopathological scores (C. difficile 630 Δerm [1]; Tac1 KO mice): nor had an effect; oedema induced by TcdA (mouse footpads; footpad injection of TcdA, antagonist pre-treatment): prevented; also recorded: blocked; oedema induced by TcdB2 (mouse footpads; listed as Aprepitant): can prevent oedema induced by TcdB2; oedema induced by TcdB (mouse footpads; footpad injection of TcdB, antagonist pre-treatment): prevented oedema induced by TcdB; oedema induced by GTD-ciDT (mouse footpads; footpad, Tac1-Cre mice infected with AAV-DTR): blocked"
NCCCC[C@H](NC(=O)[C@@H](Cc1cc(Br)c(O)c(Br)c1)NC(=O)N1CCC(N2Cc3ccccc3NC2=O)CC1)C(=O)N1CCN(c2ccncc2)CC1 [olcegepant],,reduced histopathological scores,reduced pathogen burden,not affected; also recorded: Neither drug influenced C. difficile growth rate,reduced histopathological scores,markedly reduced,markedly reduced,can prevent oedema induced by TcdB2; also recorded: prevented,,effect on C. difficile colonization and histopathological scores (C. difficile 630 Δerm [1]; Calcb KO mice): nor had an effect
"CGRP: human CGRPβ (Cayman, 24725) added to cultured pericytes (ACNTATCVTHRLAGLLSRSGGMVKSNFVPTNVGSKAF; ends and bridges not checked; cysteine pairing not given here; UniProt P10092 82-118, looked up)",,,,,,,,,,IL-8 secretion (human brain pericytes): induced secretion of IL-8
"substance P (RPKPQQFFGLM; not fully specified (C-terminus); ends and bridges not checked; UniProt P20366 58-68, looked up) [neuropeptide composed of a chain of 11 amino acids, tachykinin family]",restored,,,,,,,,restored histopathological scores,"susceptibility to TcdB (histopathology) (mice; mouse, in vivo): restored the susceptibility"
B1,,reduced histopathological scores,,,,,,,reduced histopathological scores,
